Legend:
[1] = system: cyclooxygenase; test: inhibition of synthesis of cyclooxygenase products TxB2 and PGE2 (rat polymorphonuclear leukocytes); assay type: cell-based; details: 10 μM, rat PMN; for % Inhibition of CO (as PGE2): negative = potentiation of PGE2 synthesis
Procedure, shortened: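 Glycogen-elicited peritoneal PMN from female Wistar rats, 2×10^7 cells/ml in HBSS with Ca^++, Mg^++ and 10 mM L-cysteine, preincubated with compound 10 min at 37° C. Stimulated 10 min with A23187 (10 μM) plus 0.5 μM [14C] arachidonic acid; TxB2 and PGE2 quantified by TLC, autoradiography and scintillation counting.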

[2] = biological target: T1, LTD4 (Cavia porcellus, UniProt Q2NNR5); test: inhibition of LTD4-induced bronchospasm in guinea pigs; assay type: in vivo; details: 25 mg/kg intraduodenally, 10 minutes before LTD4; guinea pig
T1 construct: isolated guinea pig trachea; from tissue; host or cells: guinea pig tracheal rings
T1 sequence (Q2NNR5 1-340): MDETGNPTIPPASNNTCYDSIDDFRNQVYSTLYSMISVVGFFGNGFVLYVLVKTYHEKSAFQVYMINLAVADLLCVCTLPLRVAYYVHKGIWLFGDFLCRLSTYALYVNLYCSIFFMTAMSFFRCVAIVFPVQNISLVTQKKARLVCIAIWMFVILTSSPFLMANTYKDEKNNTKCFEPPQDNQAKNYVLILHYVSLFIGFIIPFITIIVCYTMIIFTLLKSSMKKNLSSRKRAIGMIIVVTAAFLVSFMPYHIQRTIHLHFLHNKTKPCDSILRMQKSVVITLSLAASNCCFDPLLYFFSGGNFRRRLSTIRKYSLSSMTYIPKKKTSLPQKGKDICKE
Description: The assay of this Example measures the in vivo ability of the compounds of the invention to inhibit the bronchospasm induced in guinea pigs by the exogenously administered leukotrienes C4 and/or D4.
Male Hartley strain guinea pigs (350-600 g) are anesthetized with pentobarbital sodium (50 mg/kg, i.p.). The jugular vein is cannulated for injection of drugs and the carotid artery for monitoring blood pressure. The trachea is cannulated for artificial ventilation by a miniature Starling pump and for indirect measurement of respiratory volume changes. The animals are then pretreated with succinylcholine (2 mg/kg i.v.) and indomethacin (10 mg/kg i.v.) in trizma 8.3 buffer, 9 minutes prior to leukotriene challenge. Submaximal bronchoconstrictor responses are established in control animals by varying the dose-levels of leukotriene. Intravenous dose-levels for LTC4 range from 0.4 to 0.6 μg/kg and for LTD4 the range is from 0.3 to 0.5 μg/kg. The aerosol bronchoprovocation dose for LTC4 is generated from 1.6 μM solution and for LTD4 from a 2.0 μM solution.
Test drugs (dissolved in a solvent such as propylene glycol, polyethylene glycol 400 or saline) are administered either intraduodenally, by aerosol or intragastrically at 2 or 10 minutes before induction of bronchospasm by administration of either LTC4 or LTD4 at the predetermined dose-levels. Aerosols of soluble drugs or leukotrienes are produced in-line for 10 seconds only by actuation of an ultrasonic nebulizer (Monaghan). Aerosolized drug dosage is expressed in terms of solution concentration and by a fixed aerosol exposure time (approximately 10 seconds). Control animals receive solvent (2 ml/kg i.d. or appropriate aerosol) in place of drug.
Respiratory volume changes are determined by a calibrated piston whose travel is recorded, via a linear transducer, on a Beckman Dynograph recorder. Maximal bronchoconstrictor volume is determined by clamping off the trachea at the end of the experiment. Overflow volumes at 1,3 and 5 minutes are obtained from the recorded charts.
Area under the volume overflow curve (AUC) is estimated, using the overflow values at 1,3 and 5 minutes, and expressed as a percentage of the maximal overflow AUC (equation 1): [formula] Drug effects are reported as percent inhibition of % max AUC values obtained from appropriate control animals (equation 2): [formula]
Student's t-test for unpaired data is used to determine statistical signifiance (p<0.05). IC50 values can also be determined by inverse prediction from linear regression liens through points between 10 and 90% inhibition.

[3] = biological target: T2, 5-lipoxygenase (Rattus norvegicus, UniProt P12527); test: inhibition of 5-HETE synthesis by rat glycogen elicited polymorphonuclear leukocytes; assay type: cell-based; details: 10 μM; rat PMN; negative = potentiation of 5-HETE synthesis; read-out: % Inhibition of 5-LO (as 5-HETE)
T2 construct: Peritoneal PMN are obtained from female Wistar rats (150-250 g); endogenous in cells; host or cells: rat glycogen-elicited peritoneal polymorphonuclear leukocytes, intact
T2 sequence (P12527 1-673): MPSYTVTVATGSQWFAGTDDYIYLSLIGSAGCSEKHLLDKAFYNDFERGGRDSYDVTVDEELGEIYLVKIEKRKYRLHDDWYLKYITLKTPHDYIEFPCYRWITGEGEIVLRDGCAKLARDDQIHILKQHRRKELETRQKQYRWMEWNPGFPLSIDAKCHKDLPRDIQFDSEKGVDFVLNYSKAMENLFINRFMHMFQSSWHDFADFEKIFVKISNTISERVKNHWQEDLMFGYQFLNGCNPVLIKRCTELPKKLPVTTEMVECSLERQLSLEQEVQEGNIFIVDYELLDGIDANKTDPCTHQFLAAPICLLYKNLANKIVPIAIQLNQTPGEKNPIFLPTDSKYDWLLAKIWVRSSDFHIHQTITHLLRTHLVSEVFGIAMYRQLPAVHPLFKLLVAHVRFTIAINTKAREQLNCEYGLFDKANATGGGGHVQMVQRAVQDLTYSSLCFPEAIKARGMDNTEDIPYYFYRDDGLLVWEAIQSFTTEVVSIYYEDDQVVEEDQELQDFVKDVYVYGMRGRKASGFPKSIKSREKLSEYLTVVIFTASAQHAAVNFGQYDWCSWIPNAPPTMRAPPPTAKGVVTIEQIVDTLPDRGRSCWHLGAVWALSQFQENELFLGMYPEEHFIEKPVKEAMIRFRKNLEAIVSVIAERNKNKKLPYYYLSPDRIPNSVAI
Procedure, shortened: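 Peritoneal PMN from female Wistar rats given i.p. glycogen 24 h earlier were preincubated with compound for 10 min at 37° C (2×10^7 cells/ml, 10 mM L-cysteine). They were then stimulated 10 min with 10 μM A23187 plus 0.5 μM [14C]arachidonic acid. 5-HETE was separated by TLC and quantified by scintillation.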

[4] = system: carrageenan paw edema; test: rat carrageenan paw edema assay; assay type: in vivo; details: 1 hour prior to carrageenan, rat
Description: The compounds of the invention are further tested in the rat carrageenan paw edema assay to determine their ability to inhibit the acute inflammatory response.
140-180 gm male Sprague-Dawley rats, in groups of 6 animals are injected subcutaneously in the right paw with 0.1 ml of 1% carrageenan at zero time. Mercury plethysmographic readings (ml) of the paw are made at zero time and 3 hours later. Test compounds are suspended or dissolved in 0.5% methylcellulose and given perorally 1 hour prior to carrageenan administration.
The increase in paw volume (edema in ml.) produced by the carrageenan is measured. […] Unpaired Student's t-test is used to determine statistical significance.

[5] = system: acute gastroirritation induced by naproxen; test: cytoprotective activity against NSAID (naproxen)-induced acute gastroirritation in rats; assay type: in vivo, rat; details: drug 100 mg/kg peroral 1 hour before naproxen 25 mg/kg
From the text: The assay of Example 44 is also used to measure the cytoprotective activity of the compounds against acute gastroirritation induced by a nonsteroidal anti-inflammatory drug (NSAID).

[6] = system: pleural inflammation; test: reverse passive Arthus pleurisy assay, pleural inflammation; assay type: in vivo; details: rat
Description: (§1) The compounds of the invention are further tested in the reverse passive Arthus pleurisy assay to evaluate their effectiveness in inflammatory mediator release and/or the fluid and cellular phases of an inflammatory response.
(§2) A reverse passive Arthus reaction is induced in the pleural cavity of male Lewis rats (150-200 g; fasted overnight prior to use) by the intravenous administration of bovine serum albumin (BSA; 4 mg/0.2 ml) followed 30 minutes later by the injection of rabbit anti-BSA (1 mg/0.2 ml; lyophilized IgG fraction; Organon Teknika, West Chester, PA) into the right pleural space under halothane anesthesia. Drugs or vehicle (0.5% Tween-80) control are administered orally in a volume of 1 ml/100 g body weight at 1 hour prior to the anti-BSA. Animals are sacrificed at either the time of peak eicosanoid production (i.e. 5 minutes after anti-BSA for immunoreactive TxB2, 10 minutes for immunoreactive LTB4, 20 minutes for immunoreactive LTC4) or at the time of peak neutrophil infiltration (4 hours after anti-BSA) by CO2 inhalation. The pleural cavity is then exposed, the fluid exudate removed by gentle vacuum aspiration and the volume of exudate is recorded. For the determination of cellular infiltration, the pleural cavity is rinsed with 3 ml of 0.1% EDTA in sterile saline, and the recovered wash is pooled with the exudate. Cell number is determined on a model ZBI Coulter counter. For determination of eicosanoid production, undiluted pleural exudate is microfuged and the supernatant is extracted with ethanol (8-10 times volume). Extracts are either stored at -20° C., or are evaporated to dryness under a stream of N2 and reconstituted in radioimmunoassay (RIA) buffer.
(§3) Inflammatory cells are expressed as 10^6 cells/ml, pleural exudate is expressed as ml of fluid, and the amount of eicosanoids in the pleural cavity is expressed as ng/ml of exudate. Mean±S.E.M. is determined for each group. Percent inhibition (% I) of cell number, exudate volume and eicosanoid production is calculated for vehicle-treated control groups, and the responses in drug-treated rats are then expressed as the mean $ I of control.

[7] = system: inflammatory mediator release; test: reverse passive Arthus pleurisy assay, inflammatory mediator release; assay type: in vivo, rat; details: rat
Description: as §1
as §2, with “Drugs or vehicle (0.5% Tween-80) control are administered orally in a volume of 1 ml/100 g body weight at 1 hour prior to the anti-BSA.” left out
Eicosanoids are quantitated by RIA according to the procedure specified by the RIA kit manufacturer (Advanced Magnetics, Cambridge, MA). Briefly, 100 μl of ^3 H-labeled eicosanoid and 100 μl of specific antibody are sequentially added to 100 μl of extracted pleural exudate in BGG-phosphate buffer which contains 0.01 M phosphate, 0.1% bovine gamma globulin and 0.1% sodium azide at pH 7.0. Antibody-bound eicosanoid is separated form unbound eicosanoid by the addition of 750 μl of dextran (0.4%)-coated charcoal (0.4% Norit A) containing 0.1% sodium azide. The mixture is centrifuged at 2000 RPM at 5° C. for 15 minutes to pellet the charcoal and adsorbed unbound eicosanoid. Antibody-bound labeled eicosanoid is quantitated by counting in a liquid scintillation counter, and is correlated to concentration by a standard curve.
as §3

SMILES | % Inhibition of CO (as TxB2) [1] | % Inhibition of CO (as PGE2) [1] | % Inhibition (LTD4-induced bronchospasm) [2] | inhibition at 10 µM [3] | % Inhibition at 50 mg/kg (peroral) [4] | % of Rats With Lesions [5] | Comments (protection) [5] | % Inh Cellular Influx ([6]; 8 mg/kg p.o.) | ED30 Fluid Exudation ([6]; p.o.) | % Inh LTB4 ([7]; 4 mg/kg p.o.) | ED50 TxB2 ([7]; p.o., 1 hour prior to anti-BSA, 5 min) | Oral ED50 (95% C.L.) ([4]; oral, 95% C.L. in parentheses, 180 min)
CC(C(=O)O)c1ccc2cc(OCc3ccc4ccccc4n3)ccc2c1 (stereo not drawn) [Example 1, α-Methyl-6-(2-quinolinylmethoxy)-2-naphthaleneacetic acid] | 28% | -37% | 75% | 100% | 42% | – | – | – | – | – | – | –
CC(C(=O)O)c1ccc2cc(OCc3ccccc3)ccc2c1 (stereo not drawn) [Example 2, α-Methyl-6-(phenylmethoxy)-2-naphthaleneacetic acid] | 6% | -26% | -76% | 84% | 24% | – | – | – | – | – | – | –
CC(C(=O)O)c1ccc2cc(OCc3nc4ccccc4n3C)ccc2c1 (stereo not drawn) [Example 3, α-Methyl-6-[(1-methyl-1H-benzimidazol-2-yl)-methoxy]-2-naphthaleneacetic acid] | 15% | -29% | 80% | 24% | 32% | – | – | – | – | – | – | –
CCCCCCOc1ccc2cc(C(C)C(=O)O)ccc2c1 (stereo not drawn) [Example 10, α-Methyl-6-(hexyloxy)-2-naphthaleneacetic acid] | – | -5% | – | 81% | – | 37.5% | protection | – | – | – | – | –
CCCCOc1ccc2cc(C(C)C(=O)O)ccc2c1 (stereo not drawn) [Example 11, α-Methyl-6-(butyloxy)-2-naphthaleneacetic acid] | – | -3% | – | 28% | – | 50.0% | moderate protection | – | – | – | – | –
COc1ccc2c(c1)c(CC(=O)O)c(C)n2C(=O)c1ccc(Cl)cc1 [Indomethacin] | – | – | – | – | – | – | – | 19% | 2.5 mg/kg | 12% | 0.16 mg/kg | 3.7 (0.6, 23.8) mg/kg
